Assay results reported in patent publication US20250338846A1, “COMPOSITIONS HAVING PESTICIDAL UTILITY AND PROCESSES RELATED THERETO” (CORTEVA AGRISCIENCE, LLC, priority 2022, published 2025).

Legend:
[1] = system: Beet Armyworm (Spodoptera exigua, LAPHEG); test: Bioassay 6: Beet Armyworm, artificial lepidopteran diet, live larvae after 5 days; format: in vivo; conditions: BAW
Description: where X=No. of live nymphs on solvent check and Y=No. of live nymphs on treated bean segments. In Table B5 the “Expected % Control” was calculated using the method described in Colby S. R., Weeds, 1967, 15, 20-22. Bioassay 6: Beet Armyworm (Spodoptera exigua, LAPHEG) (BAW), and Diamondback Moth (Plutella xylostella, PLUTMA) (DBM).
Stock solutions were prepared with Formula One as well as for each of the active ingredients individually. Test solutions were prepared from the stock solutions. Test solutions were prepared containing Formula One, the individual active ingredients, and mixtures of Formula One with each of the active ingredients. […]
The test solutions were tested against BAW and DBM using the following procedure: An artificial lepidopteran diet (Multispecies Lepidopteran Diet, Southland Products) was distributed in 128-cell bioassay trays (Frontier Agricultural Sciences™). […] After 5 days, the number of live larvae were recorded from each cell and percent control was measured using Abbott's correction formula (W. S. Abbott, J. Econ. Entomol. 18 (1925), pp. 265-267) as follows:
where X=No. of live larvae on solvent check and Y=No. of live larvae on treated diet. In Table B6 the “Expected % Control” was calculated using the method described in Colby S. R., Weeds, 1967, 15, 20-22. […]

[2] = system: Sweet Potato Whitefly (Bemisia tabaci, BEMITA); test: Bioassay 2: Sweet Potato Whitefly, spray on cotton seedlings at crawler emergence, nymphs counted 7-9 days after treatment; format: in vivo
How it was run: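 Cotton seedlings pruned to one true leaf were colonized by adult B. tabaci for 24 h egg-laying, then sprayed once >25% crawler emergence was underway; solutions 0.001% to 0.00000001% (w/v) in acetone/water with 0.025% Tween 20. Held ~25° C; live 2-3 instar nymphs counted 7-9 days later, Abbott-corrected % control.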

| Molecule | Average % Control AI ([2]; AI alone 0.1 (10-5) % w/v) | Average % Control AI ([2]; AI alone 1 (10-5) % w/v) | other results |
| --- | --- | --- | --- |
| Abamectin | 16% |  | Average % Control AI ([1]; AI alone, Ratio F1:AI 100:1): 50% |
| Cc1c(COC(=O)[C@@H]2[C@H](/C=C(\Cl)C(F)(F)F)C2(C)C)cccc1-c1ccccc1 (racemic) [Bifenthrin] |  | 40% |  |
| Emamectin Benzoate | 0% | 5% |  |
| CC1(C)[C@H](C(=O)O[C@H](C#N)c2cccc(Oc3ccccc3)c2)[C@@H]1/C=C(\Cl)C(F)(F)F (racemic) [Lambda Cyhalothrin] |  | 27% |  |
| C/C(=N\C#N)N(C)Cc1ccc(Cl)nc1 [Acetamiprid] |  | 29% |  |
| CCN(C(=O)CCS(C)(=O)=O)c1sc(-c2cccnc2)nc1Cl [Formula F1, N-(4-chloro-2-(pyridin-3-yl)thiazol-5-yl)-N-ethyl-3-(methylsulfonyl)propanamide] |  |  | Average % Control F1 ([1]; F1 alone 0.4 % w/v): 0% |
